Results published in ChEMBL document CHEMBL4433258, “Structure-activity relationships study of neolamellarin A and its analogues as hypoxia inducible factor-1 (HIF-1) inhibitors” (Bioorg Med Chem Lett, 2019).
pIC50: −log10 of the molar value.

Tests used:
[1] = Cytotoxicity against human HeLa cells assessed as growth inhibition incubated for 60 hrs under normoxic condition by MTT assay; format: cell-based
[2] = Inhibition of HIF-1 in human HeLa cells transfected with CMV driven renilla luciferase reporter gene incubated for 1 hr under normoxic condition and 12 hrs under hypoxia condition by HRE-based dual luciferase reporter gene assay; format: cell-based

Structure (SMILES)	pIC50 [2]	GI50 at 60 h [1]
COc1ccc(-c2cn(C(=O)c3ccccc3)cc2-c2ccc(OC)cc2)cc1	4.84	> 100 µM
O=C(c1ccccc1)n1cc(-c2ccc(O)cc2)c(-c2ccc(O)cc2)c1	4.77	32.9 µM
O=C(c1ccccc1)n1cc(-c2ccccc2)c(-c2ccccc2)c1	4.80	67.1 µM
O=C(CCc1ccc(O)cc1)n1cc(-c2ccc(O)cc2)c(-c2ccc(O)cc2)c1	4.83	51.5 µM
O=C(c1ccc(O)cc1)n1cc(-c2ccc(O)cc2)c(-c2ccc(O)cc2)c1	4.73	76 µM
O=C(/C=C/c1ccc(O)cc1)n1cc(-c2ccc(O)cc2)c(-c2ccc(O)cc2)c1	4.78	27.3 µM
O=C(Cc1ccc(O)cc1)n1cc(-c2ccc(O)cc2)c(-c2ccc(O)cc2)c1 [NEOLAMELLARIN A]	4.97	59.5 µM

The next lines start with results.

pIC50 [2]	Structure (SMILES)	GI50 at 60 h [1]
4.57	COc1ccc(CCC(=O)n2cc(-c3ccc(OC)cc3)c(-c3ccc(OC)cc3)c2)cc1	> 100 µM
4.61	COc1ccc(C(=O)n2cc(-c3ccc(OC)cc3)c(-c3ccc(OC)cc3)c2)cc1	> 100 µM
< 4.30	COc1ccc(-c2cn(C(=O)C(OC)c3ccc(OC)cc3)cc2-c2ccc(OC)cc2)cc1 (stereo unspecified)	> 100 µM
< 4.00	COc1ccc(/C=C/C(=O)n2cc(-c3ccc(OC)cc3)c(-c3ccc(OC)cc3)c2)cc1	> 100 µM
4.65	COc1ccc(CC(=O)n2cc(-c3ccc(OC)cc3)c(-c3ccc(OC)cc3)c2)cc1	> 100 µM
4.92	COc1ccc(-c2cn(C(=O)C(O)c3ccc(OC)cc3)cc2-c2ccc(OC)cc2)cc1 (stereo unspecified)	44.2 µM
